Patent publication US8207135B2, “Compositions for and methods of enhancing the immune response to antigens” (Wittycell, priority 2007, dated 2012)

B1: ovalbumin (protein, UniProt P01012 2-386, looked up)
Ovalbumin: GSIGAASMEFCFDVFKELKVHHANENIFYCPIAIMSALAMVYLGAKDSTRTQINKVVRFDKLPGFGDSIEAQCGTSVNVHSSLRDILNQITKPNDVYSFSLASRLYAEERYPILPEYLQCVKELYRGGLEPINFQTAADQARELINSWVESQTNGIIRNVLQPSSVDSQTAMVLVNAIVFKGLWEKAFKDEDTQAMPFRVTEQESKPVQMMYQIGLFRVASMASEKMKILELPFASGTMSMLVLLPDEVSGLEQLESIINFEKLTEWTSSNVMEERKIKVYLPRMKMEEKYNLTSVLMAMGITDVFSSSANLSGISSAESLKISQAVHAAHAEINEAGREVVGSAEAGVDAASVSEEFRADHPFLFCIKHIATNAVLFFGRCVSP
notes: nominal antigen, Ovalbumin grade VII, Sigma

Columns and labels:
[1] = test system: CD8+ T cells responsive to OVA; test: SIINFEKL pentamer assay of OVA-specific CD8+ T cells (FACS); assay type: in vivo, mouse; settings: IM, days 0 and 14, blood day 21
Description: To verify the results obtained using the in vivo cytotoxicity assay described in the Examples above, similar experiments were performed and CD8+ T cell activation was determined by measuring the percentage of OVA-specific CD8+ T cells using a pentamer assay. Briefly, mice were injected intramuscularly with the indicated amounts of OVA and test adjuvant compound at either 1 μg or 100 ng per mouse, respectively on day 0 as follows:
Experiment A: • Group 1: 100 μl of PBS; • Group 2: 50 μg of Ova into 100 μl PBS; • Group 3: 50 μg of Ova with 1 μg αGalCer; • Group 4: 50 μg of Ova with 1 μg PBS-11 • Group 5: 50 μg of Ova with 1 μg PBS-14 • Group 6: 50 μg of Ova with 1 μg PBS-57 • Group 7: 50 μg of Ova with 1 μg PBS-96
Experiment B: • Group 1: 100 μl of PBS; • Group 2: 50 μg of Ova into 100 μl PBS; • Group 3: 50 μg of Ova with 100 ng αGalCer; • Group 4: 50 μg of Ova with 100 ng PBS-11 • Group 5: 50 μg of Ova with 100 ng PBS-14 • Group 6: 50 μg of Ova with 100 ng PBS-57 • Group 7: 50 μg of Ova with 100 ng PBS-96 A second injection was administered to the mice on day 14 and blood was collected from the mice on day 21. The lymphocytes were collected and analyzed by FACS analysis using H-2 K^b SIINFEKL pentamer and CD8 antibody to detect CD8+ T cells responsive to OVA.

IFNγ = test: in vivo IFNγ release in sera by ELISA 24 hours after inoculation; set-up: species or system C57BL/6 mice; settings: Quantikine kit, FIG. 4
Description: To test the ability of the adjuvant test compounds to stimulate in vivo cytokine release, C57BL/6 mice were administered the compounds at different concentrations intravenously and the production of IFNγ in sera was measured 24 hours later by ELISA. Groups of 3 mice were inoculated intravenously (tail vein) on day 0 as follows: • Group 1: 100 μl of PBS alone • Group 2: 1 μg of αGalCer in 100 μl of PBS • Group 3: 100 ng of αGalCer in 100 μl of PBS • Group 4: 1 ng of αGalCer in 100 μl of PBS • Group 5: 0.1 ng of αGalCer in 100 μl of PBS • Group 6: 100 ng of αGalCer and 100 μg of Ova in 100 μl of PBS • Group 7: 1 μg of PBS-57 in 100 μl of PBS • Group 8: 100 ng of PBS-57 in 100 μl of PBS • Group 9: 1 ng of PBS-57 in 100 μl of PBS • Group 10: 0.1 ng of PBS-57 in 100 μl of PBS • Group 11: 100 ng of PBS-57 and 400 μg of Ova into 100 μl of PBS • Group 12: 1 μg of PBS-14 in 100 μl of PBS • Group 13: 100 ng of PBS-14 in 100 μl of PBS • Group 14: 1 ng of PBS-14 in 100 μl of PBS • Group 15: 0.1 ng of PBS-14 in 100 μl of PBS • Group 16: 100 ng of PBS-14 and 400 μg of Ova in 100 μl of PBS • Group 17: 1 μg of PBS-96 in 100 μl of PBS • Group 18: 100 ng of PBS-96 in 100 μl of PBS • Group 19: 1 ng of PBS-96 in 100 μl of PBS • Group 20: 0.1 ng of PBS-96 in 100 μl of PBS • Group 21: 100 ng of PBS-96 and 400 μg of Ova in 100 μl of PBS. 24 hours after inoculation, blood samples were collected from the mice and IFNγ levels were detected by ELISA kit. Two ELISA kits were used, Quantikine mouse IFNγ (RD systems) was used to test all samples and ELISA mIFNγ (Diaclone) was used to test group 1, 2, 3, 6, 7, 8, 11, 12, 13, 16, 17, 18 and 21. All sera were diluted before use in ELISA as follows:
Results are expressed as IFNγ concentration (pg/ml) in sera and take into account the dilution factor. FIG. 4 depicts results using the Quantikine mouse IFNγ kit by RD systems. FIG. 4A depicts results of IFNγ levels for mice immunized with PBS-57, FIG. 4B depicts results of IFNγ levels for mice immunized with PBS-14, FIG. 4C depicts results of IFNγ levels for mice immunized with PBS-96 and FIG. 4D depicts results of IFNγ levels for mice immunized with αGalCer. At 0.1 ng, all adjuvant candidates induce cytokine release, but mice immunized with αGalCer produced three- or four-fold less IFNγ than mice immunized with PBS-57, PBS-14 or PBS-96 (1540.57±397.53 pg/ml, 4398.05±880.86 pg/ml, 6669.31±1231.82 pg/ml, 5823.33±720.69 pg/ml respectively).
Another set of mice were used to compare the ability of adjuvant compounds to stimulate in vivo cytokine release by the method described above. Five groups of C57BL/6 mice were administered 100 ng of PBS-57, PBS-14, PBS-96, or PBS-11 in 100 μl PBS or 100 μl PBS alone intravenously. The production of IFNγ in sera was measured 24 hours later by ELISA. FIG. 5 depicts results for mice immunized with 100 ng of PBS-11, PBS-96, PBS-14 and PBS-57.

OVA-specific IgG1 = OVA-specific IgG1 ELISA after intramuscular immunization; assay type: in vivo, mouse; settings: FIG. 11; IM, 50 μg OVA with 100 ng adjuvant, 14 days post-injection
Description: (§1) Mice (6 per group) were injected intramuscularly with 50 μg of OVA either alone or in combination with 100 ng of the indicated adjuvants (Freund's adjuvant was used as a positive control) as follows: • Group 1: […] of Ova with CFA/IFA (Positive control) • Group 2: 50 μg of Ova • Group 3: 50 μg of Ova and 100 ng of αGalCer • Group 4: 50 μg of Ova and 100 ng of PBS-11 • Group 5: 50 μg of Ova and 100 ng of PBS-14 • Group 6: 50 μg of Ova and 100 ng of PBS-57 • Group 7: 50 μg of Ova and 100 ng of PBS-96 At 14 days post-injection, blood samples were collected and ELISAs for IgG1 and IgG2a were performed using mouse monoclonal antibodies specific for OVA isotype IgG1 or IgG2a. The results are shown as the titer of the antibody in peripheral blood in ng/ml. The results for IgG1 are depicted in FIG. 11 and those for IgG2a are depicted in FIG. 12.

[2] = test system: Ova-specific target cells; test: in vivo cytotoxic specific cell lysis assay (CD8+ T cell response) in immunized mice; set-up: species or system mouse; settings: for specific lysis of Ova-specific target cells in blood: Example 1, FIG. 1, 1 μg adjuvant with 50 μg Ova, day 11; for specific lysis of Ova-specific target cells in blood / average Ova-specific cytotoxic response / average Ova-specific cell lysis: IV; for average Ova-specific cytotoxic response: Example 2, FIG. 2; for average Ova-specific cytotoxic response / average OVA-specific cytotoxic response: 400 μg Ova with or without 1 μg adjuvant; for average Ova-specific cytotoxic response / average OVA-specific cytotoxic response / average Ova-specific cell lysis: day 11 blood; for average OVA-specific cytotoxic response: Example 2, FIG. 3, IM; for average Ova-specific cell lysis: Example 4, FIG. 6, 400 μg Ova with or without 1 μg adjuvant (PBS-57 new formulation); for percentage of specific lysis of the target cells by CD8+ T cells: Example 5 Experiment B, FIG. 8, 50 μg OVA with 10 ng adjuvant intramuscularly
OVA specific IgG2a = test: OVA-specific IgG2a ELISA after intramuscular immunization; assay type: in vivo, mouse; settings: FIG. 12; IM, 50 μg OVA with 100 ng adjuvant, 14 days post-injection
Description: as §1

[3] = Example 6 Experiment A, FIG. 9, 50 μg Ova with 1 μg adjuvant

Molecule | percentage of OVA specific CD8+ T cells [1, 3] | percentage of OVA specific CD8+ T cells ([1]; Example 6 Experiment B, FIG. 10, 50 μg Ova with 100 ng adjuvant) | IFNγ concentration in sera (IFNγ; 0.1 ng IV) | IFNγ concentration in sera (IFNγ; 1 ng IV) | IFNγ concentration in sera (IFNγ; 100 ng IV) | IFNγ concentration in sera (IFNγ; 1 μg IV) | OVA-specific IgG1 titer in peripheral blood (OVA-specific IgG1) | specific lysis of Ova-specific target cells in blood [2] | average Ova-specific cytotoxic response [2] | average OVA-specific cytotoxic response [2] | average Ova-specific cell lysis [2] | enhancement of the CD8+ T cell response (specific lysis) at low doses ([2]; Example 5 Experiments A and B, FIGS. 7 and 8, 50 μg OVA with 100 ng or 10 ng adjuvant intramuscularly) | OVA specific IgG2a titer in peripheral blood (OVA specific IgG2a) | percentage of specific lysis of the target cells by CD8+ T cells [2]
CCCCCCCCCCCCCCCCCCCCCCCC(=O)N[C@@H](CO[C@H]1O[C@H](CNC(C)=O)[C@H](O)[C@H](O)[C@H]1O)[C@H](O)[C@H](O)CCCCCCCCCCCCCC [PBS-96] | enhanced the percentage of OVA specific CD8+ T cells | surprisingly much better at enhancing the CD8+ T cell response | 5823.33 ± 720.69 pg/mL | 6271.95 ± 3737.53 pg/mL | 19679.89 ± 1443.48 pg/mL | 17720.11 ± 2869.97 pg/mL | able to elicit a robust IgG1 titer | resulted in cytotoxic lysis of Ova-specific target cells | 89.2±10.3% | 50.29±42.6% | 89.2±10.3% | unexpectedly better than other adjuvants | about as well as Freund's adjuvant | –
CCCCCCCCCCCCCCCCCCCCCCCCCC(=O)N[C@@H](CO[C@H]1O[C@H](CNC(=O)CCCC[C@@H]2SC[C@@H]3NC(=O)N[C@@H]32)[C@H](O)[C@H](O)[C@H]1O)[C@H](O)[C@H](O)CCCCCCCCCCCCCC [PBS-11, reference compound] | not as effective | – | – | – | – | – | – | did not result in specific lysis of cells | – | – | 32.3±2.5% | – | – | indistinguishable from the controls
CCCCCCCCCCCCCCCCCCCCCCCCCC(=O)N[C@@H](CO[C@H]1O[C@H](CO)[C@H](O)[C@H](O)[C@H]1O)[C@H](O)[C@H](O)CCCCCCCCCCCCCC [αGalCer, α-galactosyceramide, reference compound] | not as effective | – | 1540.57 ± 397.53 pg/mL | 3802.99 ± 586.02 pg/mL | 7714.37 ± 3529.07 pg/mL | – | – | – | 79.9±0.8% | −5.85±11.01% | – | – | – | indistinguishable from the controls
CCCCCCCC/C=C\CCCCCCCCCCCCCC(=O)N[C@@H](CO[C@H]1O[C@H](CNC(C)=O)[C@H](O)[C@H](O)[C@H]1O)[C@H](O)[C@H](O)CCCCCCCCCCCCCC [PBS-57, reference compound] | enhanced the percentage of OVA specific CD8+ T cells | – | 4398.05 ± 880.86 pg/mL | 11425.98 ± 833.04 pg/mL | 21432.76 ± 4312.76 pg/mL | 3353.45 ± 867.57 pg/mL | able to elicit a robust IgG1 titer | – | 88.1±6.2% | 56.11±13.34% | 88.1±6.2% | – | – | indistinguishable from the controls
B1 | – | – | – | – | – | – | – | – | 11.8±14.4% | 1.60±14.33% | 11.8±14.4% | – | – | –
